From paper PMC9667543, “Discovery of Nanomolar-Affinity Pharmacological Chaperones Stabilizing the Oncogenic p53 Mutant Y220C” (ACS Pharmacology & Translational Science, 2022)
pKd: −log10 of the molar value. Where two headings read alike, the source gives them in different places.

Tests used:
p53-Y220C [1] = biological target: T1, p53-Y220C (Homo sapiens, UniProt P04637, M133L/N239Y/N268D/V203A/Y220C); assay: Thermal stabilization (ΔTm) by differential scanning fluorimetry (DSF); format: binding; settings: 10× SYPRO Orange; for ΔTm at 200 µM: 8 μM protein
T1 construct: Stabilized p53-Y220C DBD (residues 94−312) was expressed and purified as previously described; 6xHis (N, cleaved yes); lipoyl domain (N, cleaved yes); TEV protease cleavage site (N, cleaved yes); made in house; host or cells: E. coli Rosetta2 plac I
Method: Differential Scanning Fluorimetry (DSF)
Protein thermal stabilization was determined using SYPRO orange (Life Technologies) as a dye that increases in fluorescence quantitatively upon binding to hydrophobic protein surfaces exposed upon thermal denaturation. Real-time melt analysis was recorded on a Bio-rad CFX Connect Real-time qPCR system. DSF measurements were performed using 8 μM protein and 10x SYPRO orange in assay buffer (25 mM KPi, 150 mM NaCl, 1 mM TCEP, pH 7.2) at a final DMSO concentration of 5% (v/v). ΔT m values were calculated as ΔT m = T m (protein + compound) − T m (protein). ΔT m values are reported as an average of three independent measurements. […]

p53-Y220C [2] = biological target: T1, p53-Y220C; assay: Binding affinity by isothermal titration calorimetry (ITC); settings: for LE (kcal/mol/NHA): ligand efficiency
Method: Isothermal Titration Calorimetry (ITC)
ITC experiments were conducted using a MicroCal iTC200 calorimeter. For forward titrations, the cell unit contained 25-50 μM protein in freshly dialyzed assay buffer (25 mM KPi, 150 mM NaCl, 1 mM TCEP, pH 7.2) with a final DMSO content of 5% (v/v), and the syringe contained 0.5-5 mM compound […]
the same buffer. Injection steps used were 2 µL (initial injection: 0.5 µL) at a rate of 2 µL/s with 120 s or 240 s spacing, and all experiments were performed at 25-30 °C. Data were analyzed using MicroCal PEAQ-ITC analysis software. […]

p53-Y220C [3] = biological target: T1, p53-Y220C; settings: in vitro; cited from earlier work
NUGC-3 (p53-Y220C) = test system: NUGC-3 (p53-Y220C); set-up: method as in PMID 29702446; settings: at 10 μM; cited from earlier work
[4] = test system: p53 target genes PUMA, 9p21, BTG2, FAS, TNF, and TNFRSF10B; set-up: method as in PMID 29702446; settings: qPCR; cited from earlier work
p53-Y220C [5] = biological target: T1, p53-Y220C; settings: cited from earlier work
[6] = test system: p53-Y220C cancer cell lines HUH-7, BXPC-3, NUGC-3; settings: HUH-7, BXPC-3, NUGC-3 versus NUGC-4, SW1088, WI38, HUH-7 p53-Y220C KO; cited from earlier work
p53-Y220C [7] = biological target: T1, p53-Y220C; assay: Binding affinity by isothermal titration calorimetry (ITC); settings: Table 2; ITC reverse titrations, 4–15 μM ligand, 100–147 μM protein

Row | SMILES | ΔTm at 200 µM (p53-Y220C [1]; Table 1, [L] = 200 μM) [°C] | pKd (p53-Y220C [2]; Table 1, ITC, [prot] = 50 μM) | LE (kcal/mol/NHA) (p53-Y220C [2]; Table 1) | melting point | further results
1 | Cc1cccn1-c1c(I)cc(C(=O)O)c(O)c1I [compound 43] | 1.5 | 3.70 | 0.28 |  | 
2 | Cc1ccn(-c2c(I)cc(C(=O)O)c(O)c2I)c1 [compound 44] | 1.5 | 3.80 | 0.29 |  | 
3 | CCNc1ccc(C(=O)O)c(O)c1I [compound 67] | 1.5 |  |  | 147 °C (dec.) | 
4 | O=C(O)c1cc(I)c(N2CCCC2)c(I)c1O [compound 70] | 0.3 |  |  | 146 °C (dec.) | ΔTm (°C) [L] = 200 μM (p53-Y220C [1]; Table 1, 8 μM protein): did not exhibit measurable binding nor thermal stabilization; Kd (μM) (p53-Y220C [2]; Table 1, ITC, [prot] = 50 μM): did not exhibit measurable binding nor thermal stabilization
5 | O=C(O)c1cc(I)c(-n2ccnc2)c(I)c1O [compound 18] | 1 |  |  | 238 °C (dec.) | 
6 | O=C(O)c1cc(I)c(-n2ccc(C(F)(F)F)c2)c(I)c1O [compound 23] | 0.5 | 4.00 | 0.26 |  | fold reduction in binding affinity compared with 4 (p53-Y220C [2]; versus unsubstituted pyrrole reference 4): approximately 5 fold
7 | CCNC(=O)c1c(O)c(I)c(-n2cccc2)c2sc(N(CC)CC)nc12 [compound 3] |  |  |  |  | stabilization of p53-Y220C (DSF) (p53-Y220C [3]): stabilize p53-Y220C in vitro in a concentration-dependent manner; NUGC-3 viability (NUGC-3 (p53-Y220C)): < 10%; transcription of p53 target genes [4]: enhanced and selective transcription of p53 target genes; pKd (p53-Y220C [5]; literature value, ITC): 5.40; selective cell viability reduction [6]: induces selective cell viability reduction
8 | CCN(CC)c1nc2c(C(=O)O)c(O)c(I)c(-n3cccc3)c2s1 [compound 2, reference compound] |  |  |  |  | stabilization of p53-Y220C (DSF) (p53-Y220C [3]): stabilize p53-Y220C in vitro in a concentration-dependent manner; ΔTm at 200 µM (p53-Y220C [1]; Table 2, [L] = 200 μM): 2.3 °C; pKd (p53-Y220C [7]): 5.92; LE (kcal/mol/NHA) (p53-Y220C [2]; Table 2): 0.34 kcal/mol/NHA
9 | CCN(CC)c1nc2c(C(=O)O)c(O)c(I)c(-n3ccc(F)c3)c2s1 [compound 87] |  |  |  |  | ΔTm at 200 µM (p53-Y220C [1]; Table 2, [L] = 200 μM): 2.7 °C; pKd (p53-Y220C [7]): 6.49; LE (kcal/mol/NHA) (p53-Y220C [2]; Table 2): 0.35 kcal/mol/NHA; fold improvement in affinity compared with parent 2 (p53-Y220C [2]; versus parent MB710 (2)): approximately 4 fold
10 | CN(C)Cc1ccc2c(c1)c1ccccc1n2CC(F)(F)F [compound 6] |  |  |  |  | pKd (p53-Y220C [5]; supplementary CSV, previously reported compounds, no reference printed in the file): 4.43
11 | CCCc1c(I)cc(C(=O)O)c(O)c1I [compound 76] | 0.9 | 4.40 | 0.40 |  | 
12 | CCN(CC)c1nc2c(C(=O)O)c(O)c(I)c(-n3ccc(Cl)c3)c2s1 [compound 89] |  |  |  |  | ΔTm at 200 µM (p53-Y220C [1]; Table 2, [L] = 200 μM): 2 °C; pKd (p53-Y220C [7]): 5.72; LE (kcal/mol/NHA) (p53-Y220C [2]; Table 2): 0.31 kcal/mol/NHA; fold weaker binding affinity compared with MB710 (2) (p53-Y220C [2]; versus parent 2): ca. 2 fold
13 | CCOc1c(I)cc(C(=O)O)c(O)c1I [compound 63] | 1.5 | 4.07 | 0.37 | 194 to 195 °C (dec.) | 
14 | CCCOc1c(I)cc(C(=O)O)c(O)c1I [compound 64] | 1.1 | 4.00 | 0.34 |  | 
15 | O=C(O)c1cc(I)c(-n2cc(F)c(F)c2)c(I)c1O [compound 22] | 1.9 | 4.60 | 0.33 | 217 to 218 °C (dec.) | 
